Reference: ChEMBL document CHEMBL1154022, “Efficient synthesis of 3,3-diheteroaromatic oxindole analogues and their in vitro evaluation for spermicidal potential” (Bioorg Med Chem Lett, 2009)

Tested on: Spermatozoa
Test: Spermicidal activity in rat spermatozoa assessed as […]
Type: functional
Conditions: read-out: MEC

Question: Which minimal effective concentration does the source give for `CCCCCCCCCc1ccc(OCCOCCOCCOCCOCCOCCOCCOCCOCCO)cc1` [NONOXYNOL 9] here?
Answer: 500 µg/mL

Question: For `O=C1Nc2ccccc2C1(c1c[nH]c2ccc(Br)cc12)c1c[nH]c2ccc(Br)cc12`, which minimal effective concentration is on record?
Answer: 3180 µg/mL

Question: For `Cc1[nH]c2ccccc2c1C1(c2c(C)[nH]c3ccccc23)C(=O)Nc2ccccc21`, which minimal effective concentration is on record?
Answer: 2820 µg/mL

Question: Which minimal effective concentration does the source give for `COc1ccc2[nH]cc(C3(c4c[nH]c5ccc(OC)cc45)C(=O)Nc4ccccc43)c2c1` here?
Answer: 340 µg/mL

Question: With `O=C1Nc2ccccc2C1(c1c[nH]c2ccccc12)c1c[nH]c2ccccc12` as the compound, how does the minimal effective concentration read?
Answer: 2400 µg/mL

Question: For `Cc1c(C2(c3[nH]c4ccccc4c3C)C(=O)Nc3ccccc32)[nH]c2ccccc12`, which minimal effective concentration is on record?
Answer: 1000 µg/mL

Question: For `O=C1Nc2ccccc2C1(c1ccc[nH]1)c1ccc[nH]1`, which minimal effective concentration is on record?
Answer: 3150 µg/mL

Question: With `O=C(O)c1[nH]c2ccccc2c1C1(c2c(C(=O)O)[nH]c3ccccc23)C(=O)Nc2ccccc21` as the compound, how does the minimal effective concentration read?
Answer: 1110 µg/mL

Question: With `O=C(O)Cc1c(C2(c3[nH]c4ccccc4c3CC(=O)O)C(=O)Nc3ccccc32)[nH]c2ccccc12` as the compound, how does the minimal effective concentration read?
Answer: 530 µg/mL

Question: Which minimal effective concentration does the source give for `Cn1cc(C2(c3cn(C)c4ccccc34)C(=O)Nc3ccccc32)c2ccccc21` here?
Answer: 2360 µg/mL

Tested on: not listed separately
Test: Toxicity against rabbit erythrocytes assessed as hemolytic index
Type: cell-based, Oryctolagus cuniculus
Conditions: erythrocyte

Question: Which Activity does the source give for `COc1ccc2[nH]cc(C3(c4c[nH]c5ccc(OC)cc45)C(=O)Nc4ccccc43)c2c1` here?
Answer: 3.3 mg/mL
